Like-named read-outs stand apart in the source and are kept apart here.
What was measured:
xanthine oxidase = biological target: T1, xanthine oxidase (Homo sapiens, UniProt P47989); assay: Xanthine oxidase activity and inhibition in pooled chronic wound fluid (CWF), RP-HPLC; assay type: biochemical; settings: pooled CWF retentate, 10 μmol/L allopurinol, 37° C., 2.5 hr
T1 construct: from tissue; host or cells: pooled chronic wound fluid (CWF), retentate of 3K ultrafiltration
Experimental: Additionally, samples were treated with allopurinol, a specific XO inhibitor, and the production of the metabolite oxypurinol determined at A254. Firstly, CWF was concentrated by centrifugation using nanosep 3K omega filters (PALL) at 10,000 g for 10 min at 4° C. The retentate was resuspended with 10 mM Tris-HCl buffer, pH 8.0 containing either 10 μmol/L of xanthine or allopurinol, then incubated at 37° C. for 2.5 hr in the ultrafiltration unit. After incubation, the reaction mixture was de-proteinised as per the manufacturer's instructions and the resulting filtrates analysed using reverse phase HPLC as previously outlined.
In further support of this finding, XO enzyme inhibition was assayed using a potent XO inhibitor, allopurinol. Allopurinol is rapidly metabolised by XO to generate the active metabolite, oxypurinol, which itself is an inhibitor of XO. […] Western blotting confirmed the presence of the enzyme in wound fluid (data not shown).

mice = settings: cited from earlier work

T1 sequence (P47989 whole entry): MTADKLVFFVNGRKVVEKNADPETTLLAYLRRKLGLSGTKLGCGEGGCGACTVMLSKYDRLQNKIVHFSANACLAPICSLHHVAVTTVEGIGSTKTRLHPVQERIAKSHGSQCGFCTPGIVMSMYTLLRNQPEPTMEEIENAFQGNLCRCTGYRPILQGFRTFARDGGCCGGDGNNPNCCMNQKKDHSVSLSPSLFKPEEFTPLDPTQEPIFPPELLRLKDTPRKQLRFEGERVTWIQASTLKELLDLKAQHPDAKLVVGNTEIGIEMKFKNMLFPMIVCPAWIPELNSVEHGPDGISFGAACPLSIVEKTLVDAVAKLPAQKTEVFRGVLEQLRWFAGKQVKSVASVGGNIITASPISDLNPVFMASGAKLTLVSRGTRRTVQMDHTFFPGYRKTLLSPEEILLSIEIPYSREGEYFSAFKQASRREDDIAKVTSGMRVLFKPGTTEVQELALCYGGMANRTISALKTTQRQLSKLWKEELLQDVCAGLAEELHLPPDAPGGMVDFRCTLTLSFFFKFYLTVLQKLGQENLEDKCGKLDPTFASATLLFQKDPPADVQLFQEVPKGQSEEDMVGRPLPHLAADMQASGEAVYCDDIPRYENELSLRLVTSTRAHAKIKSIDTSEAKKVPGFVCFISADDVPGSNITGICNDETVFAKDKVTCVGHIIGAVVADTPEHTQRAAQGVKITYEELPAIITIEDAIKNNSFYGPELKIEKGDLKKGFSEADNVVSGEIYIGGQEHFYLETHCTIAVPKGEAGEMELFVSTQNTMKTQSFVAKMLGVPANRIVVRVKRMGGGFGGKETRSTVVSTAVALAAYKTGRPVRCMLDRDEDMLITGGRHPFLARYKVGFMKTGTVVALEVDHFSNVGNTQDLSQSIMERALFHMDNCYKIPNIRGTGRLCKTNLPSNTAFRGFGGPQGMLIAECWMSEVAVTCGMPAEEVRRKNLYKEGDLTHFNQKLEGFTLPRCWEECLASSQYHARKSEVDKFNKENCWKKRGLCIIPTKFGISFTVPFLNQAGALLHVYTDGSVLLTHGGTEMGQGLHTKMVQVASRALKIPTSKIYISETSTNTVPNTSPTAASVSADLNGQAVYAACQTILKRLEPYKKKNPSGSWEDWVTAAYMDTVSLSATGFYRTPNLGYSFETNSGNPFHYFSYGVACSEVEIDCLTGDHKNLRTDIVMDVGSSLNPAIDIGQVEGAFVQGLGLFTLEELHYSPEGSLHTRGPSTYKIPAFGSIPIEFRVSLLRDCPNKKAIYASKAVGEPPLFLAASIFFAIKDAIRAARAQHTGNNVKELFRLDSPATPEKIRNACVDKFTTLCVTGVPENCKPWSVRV

In the case of “1,4-dihydropyrazolo[4,3-d]pyrimidin-7-one [Allopurinol]”, the “production of the metabolite oxypurinol by XO” value (xanthine oxidase; HPLC at A254) is given as “a peak consistent with the retention time of oxypurinol standard was detected”, the “XO enzyme inhibition: production of uric acid” value (xanthine oxidase; HPLC at A280) is given as “did not reveal a peak corresponding to uric acid” and the “50% lethal dose (LD50)” value (mice; given intraperitoneally) is given as 160 mg/kg. The “50% lethal dose (LD50)” value (mice; given orally) was 700 mg/kg.

Reference: US20120219536A1, “PURINE-TARGETED DIAGNOSIS AND THERAPY OF WOUNDS” (Queensland University of Technology, priority 2009, published 2012)
